Experimental data published in patent publication US8846669B2, “Oxazolidinone derivative and medical composition containing same” (Legochem Biosciences, Inc., priority 2011, dated 2014).
Converted amounts (≈) assume the structure as drawn. Where two headings read alike, the source gives them in different places.

Assays:
Assay in all cases: In vitro antibacterial activity, broth microdilution MIC90
Type in all cases: cell-based
Enterococcus faecalis = tested on: Enterococcus faecalis
Procedure: (§1) MIC90 was measured by broth microdilution method based on CLSI standards [reference: Clinical and Laboratory Standards Institute Document. (2000) Methods for Dilution Antimicrobial Susceptibility Test for Bacteria that Grow Aerobically-Fifth Edition: M7-A5. CLSI, Villanova, Pa.].
(§2) Activities of 12 strains including Staphylococcus aureus, Methicillin Resistant Staphylococcus aureus, Staphylococcus epidermidis, Methicillin Resistant Staphylococcus epidermidis, Enterococcus faecalis, Vancomycin Resistant Enterococcus faecalis, Linezolid and Vancomycin Resistant Enterococcus faecalis, Enterococcus faecium, Vancomycin Resistant Enterococcus faecium, Linezolid and Vancomycin Resistant Enterococcus faecium, and Moraxella catarrhalis, were measured, and results are shown in Table 1 below.
(§3) The final concentration of test material in the antibacterial test was from 0.063 μg/mL (minimum) to 128 μg/mL (maximum), and the final concentration of DMSO used as an excipient was 2.5% (V/V). Linezolid represented by Formula B below (manufactured by Pfizer) was used as a control and bacterial activity thereof was compared with those of the test materials.

Enterococcus faecium = tested on: Enterococcus faecium
Procedure: as §1, §2, §3

[1] = tested on: Linezolid and Vancomycin Resistant Enterococcus faecalis
Procedure: as §1, §2, §3

[2] = tested on: Linezolid and Vancomycin Resistant Enterococcus faecium (strain 10)
Procedure: as §1, §2, §3

[3] = tested on: Linezolid and Vancomycin Resistant Enterococcus faecium (strain 11)
Procedure: as §1, §2, §3

[4] = tested on: Methicillin Resistant Staphylococcus aureus
Procedure: as §1, §2, §3

[5] = tested on: Methicillin Resistant Staphylococcus epidermidis
Procedure: as §1, §2, §3

Moraxella catarrhalis = tested on: Moraxella catarrhalis
Procedure: as §1, §2, §3

Staphylococcus aureus = tested on: Staphylococcus aureus
Procedure: as §1, §2, §3

[6] = tested on: Staphylococcus epidermidis
Procedure: as §1, §2, §3

[7] = tested on: Vancomycin Resistant Enterococcus faecalis
Procedure: as §1, §2, §3

[8] = tested on: Vancomycin Resistant Enterococcus faecium
Procedure: as §1, §2, §3

[9] = Enterococcus faecalis, strain 5, E. faecalis, read-out: MIC90
[10] = Enterococcus faecium, strain 8, E. faecium, read-out: MIC90
[11] = Enterococcus faecalis, strain 7, E. faecalis VanA LR, read-out: MIC90
[12] = Enterococcus faecium, strain 10, E. faecium VanA LR, read-out: MIC90
[13] = Enterococcus faecium, strain 11, E. faecium VanA LR, read-out: MIC90
[14] = Staphylococcus aureus, strain 2, S. aureus MR, read-out: MIC90
[15] = Staphylococcus epidermidis, strain 4, S. epidermidis MR, read-out: MIC90
[16] = Moraxella catarrhalis, strain 12, M. catarrhalis, read-out: MIC90
[17] = Staphylococcus aureus, strain 1, S. aureus, read-out: MIC90
[18] = Staphylococcus epidermidis, strain 3, S. epidermidis, read-out: MIC90
[19] = Enterococcus faecalis, strain 6, E. faecalis VanA, read-out: MIC90
[20] = Enterococcus faecium, strain 9, E. faecium VanA, read-out: MIC90

| MIC90 (Enterococcus faecalis; [9]) [µg/mL] | MIC90 (Enterococcus faecium; [10]) [µg/mL] | MIC90 [1, 11] [µg/mL] | MIC90 [2, 12] [µg/mL] | MIC90 [3, 13] [µg/mL] | MIC90 [4, 14] [µg/mL] | MIC90 [5, 15] [µg/mL] | MIC90 (Moraxella catarrhalis; [16]) [µg/mL] | MIC90 (Staphylococcus aureus; [17]) [µg/mL] | MIC90 [6, 18] [µg/mL] | MIC90 [7, 19] [µg/mL] | MIC90 [8, 20] [µg/mL] | SMILES | also measured |
| --- | --- | --- | --- | --- | --- | --- | --- | --- | --- | --- | --- | --- | --- |
|  |  |  |  |  |  |  |  |  |  |  |  | CC(=O)NC[C@H]1CN(c2ccc(-c3ccc(N4CCNC=N4)nc3)c(F)c2)C(=O)O1 [Compound 53] | MIC90 (Enterococcus faecalis; Enterococcus faecalis): 1 µg/mL (≈ 2.42 µM); MIC90 (Enterococcus faecium; Enterococcus faecium): 1 µg/mL (≈ 2.42 µM); MIC90 ([1]; Enterococcus faecalis): 4 µg/mL (≈ 9.7 µM); MIC90 ([2]; Enterococcus faecium): 4 µg/mL (≈ 9.7 µM); MIC90 ([3]; Enterococcus faecium): 4 µg/mL (≈ 9.7 µM); MIC90 ([4]; Staphylococcus aureus): 2 µg/mL (≈ 4.85 µM); MIC90 ([5]; Staphylococcus epidermidis): 2 µg/mL (≈ 4.85 µM); MIC90 (Moraxella catarrhalis; Moraxella catarrhalis): 4 µg/mL (≈ 9.7 µM); MIC90 (Staphylococcus aureus; Staphylococcus aureus): 1 µg/mL (≈ 2.42 µM); MIC90 ([6]; Staphylococcus epidermidis): 1 µg/mL (≈ 2.42 µM); MIC90 ([7]; Enterococcus faecalis): 1 µg/mL (≈ 2.42 µM); MIC90 ([8]; Enterococcus faecium): 1 µg/mL (≈ 2.42 µM) |
|  |  |  |  |  |  |  |  |  |  |  |  | CC(=O)NC[C@H]1CN(c2ccc(-c3ccc(N4CCN(C(=O)CO)C=N4)nc3)c(F)c2)C(=O)O1 [Compound 54] | MIC90 (Enterococcus faecalis; Enterococcus faecalis): 0.063 µg/mL (≈ 0.134 µM); MIC90 (Enterococcus faecium; Enterococcus faecium): 0.25 µg/mL (≈ 0.531 µM); MIC90 ([1]; Enterococcus faecalis): 0.5 µg/mL (≈ 1.06 µM); antibacterial activity against linezolid-resistant bacteria (in words) ([1]; Enterococcus faecalis and Enterococcus faecium which are resistant to linezolid): very high antibacterial activity; MIC90 ([2]; Enterococcus faecium): 0.5 µg/mL (≈ 1.06 µM); MIC90 ([3]; Enterococcus faecium): 0.5 µg/mL (≈ 1.06 µM); MIC90 ([4]; Staphylococcus aureus): 0.5 µg/mL (≈ 1.06 µM); MIC90 ([5]; Staphylococcus epidermidis): 0.5 µg/mL (≈ 1.06 µM); MIC90 (Moraxella catarrhalis; Moraxella catarrhalis): 1 µg/mL (≈ 2.13 µM); MIC90 (Staphylococcus aureus; Staphylococcus aureus): 0.25 µg/mL (≈ 0.531 µM); MIC90 ([6]; Staphylococcus epidermidis): 0.125 µg/mL (≈ 0.266 µM); MIC90 ([7]; Enterococcus faecalis): 0.063 µg/mL (≈ 0.134 µM); MIC90 ([8]; Enterococcus faecium): 0.063 µg/mL (≈ 0.134 µM) |
| 1 (≈ 2.27 µM) | 1 (≈ 2.27 µM) | 4 (≈ 9.08 µM) | 4 (≈ 9.08 µM) | 4 (≈ 9.08 µM) | 4 (≈ 9.08 µM) | 2 (≈ 4.54 µM) | 2 (≈ 4.54 µM) | 1 (≈ 2.27 µM) | 1 (≈ 2.27 µM) | 2 (≈ 4.54 µM) | 1 (≈ 2.27 µM) | CCN1C=NN(c2ccc(-c3ccc(N4C[C@H](CNC(C)=O)OC4=O)cc3F)cn2)CC1 [Compound 56] |  |
| 0.25 (≈ 0.605 µM) | 0.125 (≈ 0.302 µM) | 1 (≈ 2.42 µM) | 1 (≈ 2.42 µM) | 2 (≈ 4.84 µM) | 0.5 (≈ 1.21 µM) | 0.5 (≈ 1.21 µM) | 2 (≈ 4.84 µM) | 0.25 (≈ 0.605 µM) | 0.25 (≈ 0.605 µM) | 0.25 (≈ 0.605 µM) | 0.125 (≈ 0.302 µM) | CC(=O)NC[C@H]1CN(c2ccc(-c3ccc(N4C=NOCC4)nc3)c(F)c2)C(=O)O1 [Compound 57] |  |
| 1 (≈ 2.69 µM) | 0.5 (≈ 1.34 µM) | 8 (≈ 21.5 µM) | 4 (≈ 10.7 µM) | 8 (≈ 21.5 µM) | 1 (≈ 2.69 µM) | 1 (≈ 2.69 µM) | 8 (≈ 21.5 µM) | 0.5 (≈ 1.34 µM) | 0.5 (≈ 1.34 µM) | 0.5 (≈ 1.34 µM) | 1 (≈ 2.69 µM) | O=C1O[C@@H](CO)CN1c1ccc(-c2ccc(N3C=NOCC3)nc2)c(F)c1 [Compound 58] |  |
| 0.5 (≈ 1.16 µM) | 0.25 (≈ 0.582 µM) | 4 (≈ 9.32 µM) | 4 (≈ 9.32 µM) | 4 (≈ 9.32 µM) | 0.5 (≈ 1.16 µM) | 1 (≈ 2.33 µM) | 2 (≈ 4.66 µM) | 0.25 (≈ 0.582 µM) | 0.25 (≈ 0.582 µM) | 0.5 (≈ 1.16 µM) | 0.25 (≈ 0.582 µM) | COC(=O)NC[C@H]1CN(c2ccc(-c3ccc(N4C=NOCC4)nc3)c(F)c2)C(=O)O1 [Compound 59] |  |
| 0.25 (≈ 0.59 µM) | 0.125 (≈ 0.295 µM) | 1 (≈ 2.36 µM) | 1 (≈ 2.36 µM) | 2 (≈ 4.72 µM) | 0.25 (≈ 0.59 µM) | 0.25 (≈ 0.59 µM) | 1 (≈ 2.36 µM) | 0.125 (≈ 0.295 µM) | 0.25 (≈ 0.59 µM) | 0.25 (≈ 0.59 µM) | 0.125 (≈ 0.295 µM) | O=C1O[C@@H](Cn2ccnn2)CN1c1ccc(-c2ccc(N3C=NOCC3)nc2)c(F)c1 [Compound 60] |  |
|  |  |  |  |  |  |  |  |  |  |  |  | O=C1O[C@@H](CNc2ccon2)CN1c1ccc(-c2ccc(N3C=NOCC3)nc2)c(F)c1 [Compound 61] | MIC90 (Enterococcus faecalis; strain 5, E. faecalis): 0.5 µg/mL (≈ 1.14 µM); MIC90 (Enterococcus faecium; strain 8, E. faecium): 0.25 µg/mL (≈ 0.57 µM); MIC90 ([1]; strain 7, E. faecalis VanA LR): 2 µg/mL (≈ 4.56 µM); MIC90 ([2]; strain 10, E. faecium VanA LR): 2 µg/mL (≈ 4.56 µM); MIC90 ([3]; strain 11, E. faecium VanA LR): 2 µg/mL (≈ 4.56 µM); MIC90 ([4]; strain 2, S. aureus MR): 0.25 µg/mL (≈ 0.57 µM); MIC90 ([5]; strain 4, S. epidermidis MR): 0.5 µg/mL (≈ 1.14 µM); MIC90 (Moraxella catarrhalis; strain 12, M. catarrhalis): 2 µg/mL (≈ 4.56 µM); MIC90 (Staphylococcus aureus; strain 1, S. aureus): 0.063 µg/mL (≈ 0.144 µM); MIC90 ([6]; strain 3, S. epidermidis): 0.25 µg/mL (≈ 0.57 µM); MIC90 ([7]; strain 6, E. faecalis VanA): 0.5 µg/mL (≈ 1.14 µM); MIC90 ([8]; strain 9, E. faecium VanA): 0.5 µg/mL (≈ 1.14 µM) |
| 1 (≈ 2.34 µM) | 0.5 (≈ 1.17 µM) | 4 (≈ 9.36 µM) | 8 (≈ 18.7 µM) | 4 (≈ 9.36 µM) | 2 (≈ 4.68 µM) | 4 (≈ 9.36 µM) | 4 (≈ 9.36 µM) | 0.5 (≈ 1.17 µM) | 0.5 (≈ 1.17 µM) | 1 (≈ 2.34 µM) | 1 (≈ 2.34 µM) | CC(=O)NC[C@H]1CN(c2ccc(-c3ccc(N4CCON=C4C)nc3)c(F)c2)C(=O)O1 [Compound 62] |  |
